Source: PMC10150366, “Discovery of an In Vivo Chemical Probe for BCL6 Inhibition by Optimization of Tricyclic Quinolinones” (Journal of Medicinal Chemistry, 2023)

Legend:
HTR3A = biological target: T1, HTR3A (Homo sapiens, UniProt P46098); assay: SAFETYscan Ion Channel HTR3A Blocker; assay type: cell-based
T1 sequence (P46098 24-478): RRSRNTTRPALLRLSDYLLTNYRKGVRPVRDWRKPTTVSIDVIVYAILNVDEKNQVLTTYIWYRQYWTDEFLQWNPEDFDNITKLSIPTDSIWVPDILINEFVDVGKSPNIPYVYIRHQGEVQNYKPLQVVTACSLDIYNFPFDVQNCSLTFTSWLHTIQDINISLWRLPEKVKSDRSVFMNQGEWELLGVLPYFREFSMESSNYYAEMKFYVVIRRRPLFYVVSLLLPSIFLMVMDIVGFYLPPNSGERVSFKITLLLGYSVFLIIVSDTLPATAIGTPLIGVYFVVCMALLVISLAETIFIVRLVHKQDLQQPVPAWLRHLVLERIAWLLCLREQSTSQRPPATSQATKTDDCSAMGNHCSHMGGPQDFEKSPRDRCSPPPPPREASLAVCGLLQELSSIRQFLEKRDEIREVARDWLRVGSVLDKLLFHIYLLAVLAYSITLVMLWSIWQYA
Description: Supplement jm3c00155_si_002.xlsx, sheet "SAFETYScan" | column: RC50 (uM); Max Response

OCI-Ly3 = assay: 14-day cell proliferation assay, OCI-Ly3; assay type: cell-based; settings: Homo sapiens, 14-day assay, BCL6-independent line
Description: DMSO final concentration.
After a short centrifugation the
(1st emission filter) / 450-80 nm (2nd emission filter). The % inhibition at each test concentration was […]
sigmoidal four-parameter logistic fit equation.
2.3 Cell proliferation assay
Aldrich) supplemented with 10% FBS (Gibco). Compounds were initially dispensed into 96-well U-bottom […]
transferred onto the cells.
Assay plates containing cells
(Beckman Coulter). The volume of medium containing 2500 cells in the control well was calculated and this volume of cells was transferred from every well of the assay plates to the corresponding well of the fresh plates containing compound. After 14 days, CellTiter Glo reagent (Promega) was added to the medium in each well of the assay plate at a ratio of 1:2, mixed on a plate shaker, then incubated at room temperature for 10 minutes. Luminescence was measured using an Envision plate reader (Perkin Elmer) and the relative luminescence at each compound concentration, compared to DMSO alone, was calculated. GI50 were determined using a 4-parameter curve fit in Dotmatics (Bishops Stortford, UK).

Cn1c(=O)c2c(c3cc(Nc4ccnc(F)c4Cl)ccc31)N[C@@H](C1CC1)C(F)(F)CO2 [compound 17, (S)-10-((3-chloro-2-fluoropyridin-4-yl)amino)-2-cyclopropyl-3,3-difluoro-7-methyl-1,2,3,4-tetrahydro-[1,4]oxazepino[2,3-c]quinolin-6(7H)-one] showed an IC50 (HTR3A) of over 10000 nM, an Emax (HTR3A; HTR3A, Ion Channel, Blocker, read-out: Max Response) of 0% and a GI50 (OCI-Ly3) of 1850 nM.
